# Source: patent publication US10766912B2 (priority 2017, dated 2020)
# Legend:
# [1] = test system: HCV GT1a wild-type replicon; test: Assay Example 6: drug resistance, activity against HCV GT1a wild-type replicon; type: cell-based; settings: Hepatitis C virus, 72 h, Huh-7 cells, transient transfection, 3 days, read-out: GT1a-wt EC50 value
# Protocol: Cells: Huh-7 cells are liver cancer cell strains (from AppTec, USA), HCVGT1a wild-type replicon and GT1a-NS5A-Y93H and GT1a-NS5A-L31V mutant replicons
# Treatment of Compound: According to the assay final concentrations of the compounds in Table 11, DMSO stock solutions of the compounds were diluted and then added to a 96-well assay plate. The final concentration of DMSO was 0.5%.
# The preparation of cells: After replicon plasmid DNA was linearized with a corresponding restriction enzyme, the DNA was transcribed into RNA by using T7 RNA polymerase. Replicon RNA prepared by transcription in vitro was transfected into Huh-7 cells by electroporation. Transfected cells were seeded at a density of 10,000 cells per well into the 96-well assay plate containing the diluted compounds, and then placed in a 37° C. incubator with 5% CO2 and cultured for 3 days.
# Compound activity assay: Luminescence signal value (RLU) was detected with Envision within 5 minutes by using the luciferase assay reagent Britelite plus, and the original data (RLU) was used for the calculation of the activity of the compounds.
# The activity of the compounds was calculated by using the equation below: Inhibition %=(CPD−ZPE)/(HPE−ZPE)×100%*
# The compound activity percentages (Inhibition %) were imported into GraphPad Prism software, and curves were fitted by using nonlinear regression method to obtain the corresponding curves of the compounds and the inhibitory activity (EC50) values against the HCV replicon thereof.
# [2] = test system: hepatitis C virus HCVcc (GT2a, JFH-1); test: Assay Example 3: activity against infective hepatitis C virus HCVcc (GT2a, JFH-1); type: cell-based; settings: Huh-7.5.1, 72 h, read-out: EC50 Value GT2a HCVcc
# Protocol: Cells: Huh7.5.1 cells and hepatitis C virus HCVcc (GT2a, JFH-1) infection system.
# Treatment of Compound: According to the assay final concentrations of the compounds in Table 6, DMSO stock solutions of the compounds were diluted and then added to a 96-well assay plate. The final concentration of DMSO was 0.5%.
# Viral infection: Huh7.5.1 cells were seeded in a 96-well cell culture plate, and the cells were cultured overnight at 37° C. in an incubator with 5% CO2 for later use. The compound and the HCVcc virus solution (MOI=0.1) were simultaneously added to the cells, and the virus infection was cultured for 3 days. Parallel cytotoxicity assay was identical to the method for the inhibition of the virus but without viral infection.
# Drug activity assay: The activity of hRLuc was detected by the addition of Renilla luciferase assay reagent. The original data (RLU) was used for the calculation of the activity of the compounds.
# The activity of the compounds was calculated by using the equation below: Inhibition %=(CPD−VC)/(CC−VC)×100%*
# The cell viability percentages (Cell Viability %) and the compound activity percentages (Inhibition %) were imported into GraphPad Prism software, respectively, and curves were fitted by using nonlinear regression method to obtain the corresponding curves of the compounds, and the cytotoxicity (CC50) thereof and inhibitory activity (EC50) values against the HCV replicon thereof.
compound,measurement,setting,value
COC(=O)N[C@H](C(=O)N1CCC[C@H]1C(=O)Nc1ccc([C@H]2CC[C@H](c3ccc4nc([C@@H]5CCCN5C(=O)[C@@H](NC(=O)OC)[C@@H](C)OC)[nH]c4c3)N2c2cc(F)c(N3CC[Si](C)(C)CC3)c(F)c2)cc1)[C@@H](C)OC [Compound 6b],EC50,[1],2.2 pM
same,EC50,[2],1.37 pM
